Laboratory results as given in patent US20260216067A1, “CARRIER AS A MULTIFUNCTIONAL SYSTEM” (LIFESOME THERAPEUTICS, S.L., priority 2022, published 2026).

Key:
[1] = ADME studies, distribution; type: in vivo
[2] = test system: SK3-expressing cancer cells; settings: at 10 nM; cited from earlier work
[3] = Ames tests; cited from earlier work
[4] = cited from earlier work
[5] = cited from earlier work; remark: listed apart in the source
[6] = 15 mg/Kg, up to 4 months treatment; cited from earlier work
SK3 channel = SK3 channel (Homo sapiens, UniProt Q9UGI6); settings: cited from earlier work
IKCa/SK4 channel = IKCa/SK4 channel (Homo sapiens, UniProt O15554); settings: cited from earlier work
SK2 channel = SK2 channel (Homo sapiens, UniProt Q9H2S1); settings: cited from earlier work
SKCa channels = settings: cited from earlier work
protein kinase C (PKC) = settings: cited from earlier work
[7] = molecular target: receptors for platelet activating factor (PAF) (Homo sapiens, UniProt P25105); settings: cited from earlier work
[8] = test system: receptors for lysophosphatidic acid (LPA); settings: cited from earlier work
SK3-expressing cells = settings: in vivo; cited from earlier work
[9] = rodents; no observable tissue damage by a pathologist; cited from earlier work
PC3 = experiment: MTT cell viability test, PC3; type: cell-based; settings: Homo sapiens, PC-3, 72 h, up to 3 days, read-out: tumor cell viability
Experimental: (§1) Ohmline nanoparticles were used to deliver docetaxel into different cancer cell lines. Cell viability was determined using tetrazolium salt reduction method (MTT)(CyQUANT™ MTT Cell Viability Assary, Thermo Fisher Scientific product V13154: https://www.thermofisher.com/order/catalog/product/V13154?ef_id=4431670897231bd9f4af0 436727d3335: G: s&s_kwcid=AL!3652!10!77240846955634!77240903742099&cid=bid_pca_i va_r01_co_cp1359_pjt0000_bid00000_Ose_bng_nt_pur_con&msclkid=4431670897231bd9f 4af0436727d3335 #/V13154), that reflects the number of viable cells. 6500 cells were seeded at day=0 in a 48 wells plate. Each well was filled up with the regular medium of the cancer cell. At day=1 the medium was aspirated and replaced with new media for each formulation to be tested. Cells were incubated up to 3 days.
(§2) At the end of the incubation, the medium was aspirated and replaced with MTT solution at 0.5 mg/ml concentration. The plate was incubated at 37° C. by 30-45 min. After incubation the supernatant was aspirated, and the formed crystals dissolved with DMSO and gently agitation at room temperature protected from the light. 200 μl were transferred from each well to 96 well plates to measure the absorbance at 570 nm. (see FIGS. 8A, 8B and 8C).
(§3) Ohmline control at 1 and 5 μM, in MLV formulation.
(§4) DOX is docetaxel at 0,5 and 1 nM, in DMSO. […]

MDA MB 435 = experiment: MTT cell viability test, MDA MB 435; type: cell-based; settings: Homo sapiens, 72 h, up to 3 days, read-out: tumor cell viability
Experimental: as §1, §2, §3, §4

MCF7 = experiment: MTT cell viability test, MCF7; type: cell-based; settings: Homo sapiens, 72 h, up to 3 days, read-out: tumor cell viability
Experimental: as §1, §2, §3, §4

MDA MB 231 = experiment: MTT cell viability test, MDA MB 231; type: cell-based; settings: Homo sapiens, 72 h, up to 3 days, read-out: tumor cell viability
Experimental: as §1, §2, §3, §4

SW620 = experiment: MTT cell viability test, SW620; type: cell-based; settings: Homo sapiens, SW-620, 72 h, up to 3 days, read-out: tumor cell viability
Experimental: as §1, §2, §3, §4

[10] = test system: MDA-MB-231, HCT116, PC3, HaCaT and fibroblasts; settings: 25 μM for 48 h; cited from earlier work

IKCa/SK4 channel, sequence (O15554 whole entry): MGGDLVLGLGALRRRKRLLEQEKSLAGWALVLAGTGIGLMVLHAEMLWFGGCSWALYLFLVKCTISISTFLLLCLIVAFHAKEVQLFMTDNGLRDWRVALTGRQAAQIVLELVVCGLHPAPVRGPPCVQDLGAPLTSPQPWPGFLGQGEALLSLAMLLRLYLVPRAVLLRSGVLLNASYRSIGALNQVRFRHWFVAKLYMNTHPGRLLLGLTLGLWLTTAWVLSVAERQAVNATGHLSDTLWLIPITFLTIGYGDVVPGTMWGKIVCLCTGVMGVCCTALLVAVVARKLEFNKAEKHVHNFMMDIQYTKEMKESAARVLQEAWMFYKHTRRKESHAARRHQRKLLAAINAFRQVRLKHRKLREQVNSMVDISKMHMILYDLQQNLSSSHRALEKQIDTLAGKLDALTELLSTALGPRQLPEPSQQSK
receptors for platelet activating factor (PAF), sequence (P25105 whole entry): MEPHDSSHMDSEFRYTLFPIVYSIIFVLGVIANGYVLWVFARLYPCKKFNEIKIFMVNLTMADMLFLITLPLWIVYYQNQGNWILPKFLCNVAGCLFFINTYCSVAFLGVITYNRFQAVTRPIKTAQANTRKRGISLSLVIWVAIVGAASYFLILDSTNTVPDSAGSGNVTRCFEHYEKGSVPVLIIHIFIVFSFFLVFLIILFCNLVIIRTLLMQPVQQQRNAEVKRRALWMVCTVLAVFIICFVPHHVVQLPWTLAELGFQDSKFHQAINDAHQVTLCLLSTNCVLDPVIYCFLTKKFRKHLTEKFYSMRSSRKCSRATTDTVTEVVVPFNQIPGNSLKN
SK2 channel, sequence (Q9H2S1 whole entry): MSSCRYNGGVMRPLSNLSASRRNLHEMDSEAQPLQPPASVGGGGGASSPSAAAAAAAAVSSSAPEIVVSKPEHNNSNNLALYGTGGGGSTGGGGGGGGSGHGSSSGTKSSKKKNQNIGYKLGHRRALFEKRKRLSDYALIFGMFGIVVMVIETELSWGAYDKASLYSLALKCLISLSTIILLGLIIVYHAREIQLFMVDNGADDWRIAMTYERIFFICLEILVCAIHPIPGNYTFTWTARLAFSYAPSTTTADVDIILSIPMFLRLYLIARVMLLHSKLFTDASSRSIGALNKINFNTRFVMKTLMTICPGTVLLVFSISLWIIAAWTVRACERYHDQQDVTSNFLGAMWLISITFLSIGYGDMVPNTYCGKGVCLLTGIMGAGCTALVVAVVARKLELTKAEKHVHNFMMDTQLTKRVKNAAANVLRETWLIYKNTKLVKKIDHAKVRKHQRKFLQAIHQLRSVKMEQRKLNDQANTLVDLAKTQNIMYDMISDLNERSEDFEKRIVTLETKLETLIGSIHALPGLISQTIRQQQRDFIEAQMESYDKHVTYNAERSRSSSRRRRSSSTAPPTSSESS

For `CCCCCCCCCCCCCCCCOCC(COC1OC(CO)C(OC2OC(CO)C(O)C(O)C2O)C(O)C1O)OC` (centres unmarked) [Ohmline, 1-O-hexadecyl-2-O-methyl-sn-glycero-3-lactose], the distribution to brain [1] is listed as “able to cross the blood brain barrier”, the “reduction of migration of SK3-expressing cancer cells (efficiency)” value [2] is listed as 50% and the mutagenic potential [3] is listed as “no mutagenic potential”. The micronuclei test effect ([4]; at 100 μM) was “weak positive effect”, the “in vitro concentrations with no toxicity or genotoxicity” value ([4]; concluded from Ames and micronuclei tests) was “lower than 10 μM” and the persistence in brain ([5]; after the end of administration) was “present in brain still two weeks after the end of its administration”. The incorporation in tissues ([5]; stomach, intestine, kidney, liver, heart and brain) was “incorporated in the tissues tested”, the acute toxicity [6] was “no acute toxicity” and the IC50 (SK3 channel; SK3 channel) was 300 nM. For the same molecule, the “potency SK3 versus SK1 channel” value (SK3 channel) was “greater for SK3 channel than for SK1 channel”, the “effect on IKCa/SK4 channel” value (IKCa/SK4 channel) was “did not affect” and the “effect on SK2 channel” value (SK2 channel) was “only slightly but not significantly affected”. The “displacement of apamin from SKCa channels” value (SKCa channels) was “did not displace”, the “effect on protein kinase C (PKC)” value (protein kinase C (PKC)) was “no effect” and the “effect on receptors for platelet activating factor (PAF)” value [7] was “no effect”. The “effect on receptors for lysophosphatidic acid (LPA)” value [8] was “no effect”, the metastasis development (SK3-expressing cells) was “reduce not only bone metastasis development but also lung and lymph node metastases” and the tolerance and safety [9] was “good tolerance and an apparent safety”.

`CC(=O)O[C@@]12CO[C@@H]1C[C@H](O)[C@@]1(C)C(=O)[C@H](O)C3=C(C)[C@@H](OC(=O)[C@H](O)[C@@H](NC(=O)OC(C)(C)C)c4ccccc4)C[C@@](O)([C@@H](OC(=O)c4ccccc4)[C@H]21)C3(C)C` [DOX, docetaxel] gave a viability at 0.0005 µM (PC3; DOX 0.5 nM in DMSO) of 79%, a viability at 0.001 µM (PC3; DOX 1 nM in DMSO) of 73% and a viability at 0.0005 µM (MDA MB 435; DOX 0.5 nM in DMSO) of 100%. It also gave a viability at 0.001 µM (MDA MB 435; DOX 1 nM in DMSO) of 69%, a viability at 0.0005 µM (MCF7; DOX 0.5 nM in DMSO) of 97% and a viability at 0.001 µM (MCF7; DOX 1 nM in DMSO) of 84%. It also gave a viability at 0.0005 µM (MDA MB 231; DOX 0.5 nM in DMSO) of 72%, a viability at 0.001 µM (MDA MB 231; DOX 1 nM in DMSO) of 73% and a viability at 0.0005 µM (SW620; DOX 0.5 nM in DMSO) of 99%. The viability at 0.001 µM (SW620; DOX 1 nM in DMSO) was 92%.

In the case of `CCCCCCCCCCCCCCCCCCOCC(COP(=O)([O-])OCC[N+](C)(C)C)OC` (centres unmarked) [Edelfosine], the cells still alive [10] is listed as about 0%.
